Counter-ions that a name gives are not always drawn.
Experiments:
[1] = system: oxazolone induced ear inflammation; experiment: Oxazolone induced Mouse Ear Oedema Assay; type: in vivo, mice; conditions: for % inhibition of ear swelling: 24 hours; for inhibition of the formation of ear oedema: Example 7, 500 μg/ear dissolved in 96% ethanol
Protocol: Screening for Anti-inflammatory Effect in the Oxazolone induced Mouse Ear Oedema Assay. […] This screening method is commonly employed for screening and evaluation of anti-inflammatory drugs, in particular with respect to the inflammation seen in contact dermatitis. Betamethasone-17 valerate was used as the positive control. […] Betamethason was administered topically in quantities of 20 μg/ear. Betamethason was applied in the commercial form Celeston valerate® 0.1%. All groups were immunised with 20 μl oxazolone, 1.6% in ethanol 96% (w/v) on the left and the right ear. The ear thickness of all mice on both the left and right side was measured with an electronic measuring gauge. All groups were challenged with 20 μl oxazolone (1.6% in ethanol 96% (w/v)) on the left ear and the right ear. Vehicle (acetone) or test article solutions were administered 20 minutes before and 20 minutes after oxazolone challenge. 24 hours after oxazolone challenge the ear thickness of all mice was measured with an electronic measuring gauge. Mean thickness of the ears and standard deviations were calculated. Ear swelling was calculated as the difference between the ear thickness day 7 and day 8. […] Differences in ear swelling between the vehicle treated group and the other groups were tested for significance employing a non-parametric statistical method of analysis, the Mann-Whitney U test. The required level of significance was p<0.05. […] Both test articles were applied in a dose of 500 μg/ear and dissolved in 96% ethanol. Betamethason, as the positive control was administered topically in quantities of 20 μg/ear.

[2] = system: Phosphodiesterase PDE IV; experiment: Phosphodiesterase PDE IV enzyme inhibition assay (MDS Pharma Service No. 154000); type: biochemical; conditions: in comparison to Oxaprozin
Protocol: Trends Pharmacol Sci 1991 January; 12(1):19-27 and in Cortijo J, Bou J, Beleta J, Cardelus I, Llenas J, Morcillo E et al. Investigation into the role of phosphodiesterase IV in bronchorelaxation, including studies with human bronchus. Br J Pharmacol 1993 February; 108(2):562-8. The inhibitory activity of Phosphodiesterase PDE IV may be determined at MDS Pharma Service using test method number 154000.
(§1) The enzyme assays were conducted by MSD Pharma Services.

[3] = target: T1, Protein Tyrosine Kinase, SYK (Homo sapiens, UniProt P43405); experiment: Protein Tyrosine Kinase SYK enzyme inhibition assay (MDS Pharma Service No. 155761); type: biochemical; conditions: in comparison to Oxaprozin
T1 construct: purchased MDS Pharma Service (contract assay) 155761
Source text: The term “an inhibitor of Protein tyrosine kinase Syk” refers to any agent that inhibits the catalytic activity of Protein tyrosine kinase Syk in vitro. Such in vitro assays are described in Shichijo M, Yamamoto N, Tsujishita H, Kimata M, Nagai H, Kokubo T. Inhibition of syk activity and degranulation of human mast cells by flavonoids. Biol Pharm Bull 2003 December; 26(12):1685-90 and in Zhang J, Berenstein E, Siraganian R P. Phosphorylation of Tyr342 in the linker region of Syk is critical for Fc epsilon RI signalling in mast cells. Mol Cell Biol 2002 December; 22(23):8144-54. The inhibitory activity of Protein Tyrosine Kinase SYK may be determined at MDS Pharma Service using test method number 155761.
as §1

[4] = target: T2, Protein Tyrosine Kinase, ZA70 (ZAP-70) (Homo sapiens, UniProt P43403); experiment: Protein Tyrosine Kinase ZA70 (ZAP-70) enzyme inhibition assay (MDS Pharma Service No. 155987); type: biochemical; conditions: in comparison to Oxaprozin
T2 construct: purchased MDS Pharma Service (contract assay) 155987
T2 sequence (P43403 1-619): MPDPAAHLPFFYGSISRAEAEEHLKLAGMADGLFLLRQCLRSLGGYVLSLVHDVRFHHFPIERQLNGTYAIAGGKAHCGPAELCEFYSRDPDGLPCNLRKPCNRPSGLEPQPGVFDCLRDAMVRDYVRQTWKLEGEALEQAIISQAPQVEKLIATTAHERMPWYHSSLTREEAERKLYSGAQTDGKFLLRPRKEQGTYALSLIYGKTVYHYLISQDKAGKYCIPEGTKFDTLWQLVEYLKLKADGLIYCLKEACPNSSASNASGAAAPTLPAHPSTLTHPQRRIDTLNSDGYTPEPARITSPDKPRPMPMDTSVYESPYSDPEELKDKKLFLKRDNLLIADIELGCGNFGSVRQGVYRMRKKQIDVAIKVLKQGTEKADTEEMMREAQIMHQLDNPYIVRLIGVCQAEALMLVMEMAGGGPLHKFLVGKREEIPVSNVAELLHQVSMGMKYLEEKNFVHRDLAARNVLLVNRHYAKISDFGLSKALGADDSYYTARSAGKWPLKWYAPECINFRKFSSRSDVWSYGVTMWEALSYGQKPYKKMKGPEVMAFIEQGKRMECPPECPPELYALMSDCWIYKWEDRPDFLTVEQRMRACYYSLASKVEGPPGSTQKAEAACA
Source text: The term “an inhibitor of Protein tyrosine kinase ZAP-70” refers to any agent that inhibits the catalytic activity of the Protein tyrosine kinase ZAP-70 in vitro as may be determined using a method described in Huckle W R, Dy R C, Earp H S. Calcium-dependent increase in tyrosine kinase activity stimulated by angiotensin II. Proc Natl Acad Sci USA 1992 Sep. 15; 89(18):8837-41 and in Isakov N, Wange R L, Watts J D, Aebersold R, Samelson L E. Purification and characterization of human ZAP-70 protein-tyrosine kinase from a baculovirus expression system. J Biol Chem 1996 Jun. 28; 271(26):15753-61. The inhibitory activity of Protein Tyrosine Kinase ZAP may be determined at MDS Pharma Service using test method number 155987.
as §1

[5] = system: skin; conditions: guinea pig, in vivo
Protocol: 17th, 1992, and the test method B.6 of the 96/54 E.E.C Directive.
Albino guinea pigs of Dunkin-Hartley strain were exposed to the test item after an acclimatisation period of at least five days.
The Maximum Non Necrotizing Concentration (M.N.N.C.) was determined by injecting by intradermal route the following concentrations: 2.5%, 1.25%, 0.625%, 0.3125%, 0.1562% and 0.078% diluted in physiological saline solution.
Pre-Maximum Non Irritant Concentration (pre-M.N.I.C.) was determined by application of the test item under an occlusive dressing during 24 hours, at the following concentrations: 2.5%, 1.25%, 0.625%, 0.3125% diluted in physiological saline solution.
Maximum Non Irritant Concentration (M.N.I.C.) was determined by initially establishing an induction phase by intradermal injection with a physiological saline solution and by topical application of distilled water followed by a 18-day rest phase. In the challenge phase where the test item is under occlusive dressing for 24 hours, the test item was applied to the skin of the Albino guinea pigs at the following concentrations: 2.5%, 1.25%, 0.625%, 0.3125% diluted in physiological saline solution.

[6] = system: undamaged skin; experiment: Acute dermal irritation; type: in vivo; conditions: monoethanolamine salt 5% by weight in water, 0.5 mL patch; reading time 1 hour
Protocol: The sample was applied at a dose of 0.5 mL, on an undamaged skin area of the right flank of each animal. The patch was secured in position with a strip of surgical adhesive tape.
On the left flank an untreated area served as the control.
The skin reactions were evaluated after 1 hour and then after 24, 48 and 72 hours following removal of the patch according to the following grading scale:
Erythema (0: No erythema, 1: Slight(barelyperceptible)erythema, 2: Definite erythema, 3: Moderate to severe erythema, 4: Severe erythema (purple) with formation of eschars (deep lesions) preventing erythema from being grading).
Oedema (0: No oedema, 1: Very slight (barely perceptible) oedema, 2: Slight oedema (contour clearly defined), 3: Moderate oedema (thickness), 4: Severe oedema (thickness greater than 1 mm, surface larger than zone of application)

CCCCC(=O)O[C@]1(C(=O)CO)[C@@H](C)C[C@H]2[C@@H]3CCC4=CC(=O)C=C[C@]4(C)[C@@]3(F)[C@@H](O)C[C@@]21C [Betamethasone 17-valerate]
% inhibition of ear swelling ([1]; 20 μg/ear topical, Celeston valerate 0.1%): 66%

CCCCOc1ccc(CC(=O)NO)cc1 [Bufexamac]
inhibitory effect on the PDE-IV enzyme [2]: exhibits inhibitory effect | inhibitory effect on Protein Tyrosine Kinase SYK [3]: only exhibits inhibitory effect on the PDE-IV enzyme | inhibitory effect on Protein Tyrosine Kinase ZAP-70 [4]: only exhibits inhibitory effect on the PDE-IV enzyme | inhibition of the formation of ear oedema [1]: did not inhibit the formation of ear oedema at all

O=C(O)CCc1nc(-c2ccccc2)c(-c2ccccc2)o1 [Oxaprozin monoethanolamine salt]
% inhibition of ear swelling ([1]; 250 μg/ear topical in acetone, 20 min before and after oxazolone challenge): 53% | % inhibition of ear swelling ([1]; 500 μg/ear topical in acetone, 20 min before and after oxazolone challenge): 77% | % inhibition of ear swelling ([1]; 1000 μg/ear topical in acetone, 20 min before and after oxazolone challenge): 95% | inhibition of ear swelling (conclusion) ([1]; 250-1000 μg/ear): dose dependent and highly significant inhibition of ear swelling | inhibition of ear swelling compared with Betamethasone 17-valerate ([1]; highest dose (1000 μg/ear) vs Betamethasone 17-valerate 20 μg/ear): significantly stronger | skin sensitization (cutaneous reactions attributable to allergy) [5]: not causing sensitization reactions

O=C(O)CCc1nc(-c2ccccc2)c(-c2ccccc2)o1 [Oxaprozin, 4,5-diphenyl-2-oxazole-propionic acid]
inhibition of the formation of ear oedema [1]: statistically significant inhibition of the formation of ear oedema | cutaneous reactions (erythema) [6]: slight erythema

Reference: patent US20060229347A1, “Treatment of eczemas” (Astion Development A/S, priority 2005, published 2006)
